Laboratory results: publication PMC11719499 (International Journal of Molecular Sciences, 2024)
“Also recorded” adds a separate entry of the source.

How the values were obtained:
[1] = for Prediction of penetration to the CNS: class from logPe in PAMPA-BBB; for BBB permeability (in words): PAMPA-BBB
Description: We used the parallel artificial membrane permeability assay for BBB (PAMPA-BBB) to determine the brain permeability of compounds 1 and 12 [22]. The compounds 1 and 12 were prepared with methyl alcohol at the concentration of 4 mg/mL. These were diluted with PBS (Phosphate Buffer Saline; pH = 7.4) to obtain the donor solutions 100 μg/mL PAMPA “sandwich”, consisting of a donor 96-well microliter plate and matching filter plate coated with 5 μL of 2% lecithin/dodecane. Compounds 1 and 12 were added to the wells (150 μL/well) of the pre-coated filter, and PBS was added to the wells (300 μL/well) of the receiver plate. The filter plate was coupled with the receiver plate, and the plate couple was incubated in the thermostat at 37 °C for 16 h. After incubation, the plates were separated, and the samples from each well of both the filter plate and the receiver plate were sucked out and analyzed by HPLC.

HM mCherry-GFP-LC3 cells = assay: Autophagic flux assay by flow cytometry in HM mCherry-GFP-LC3 cells; format: cell-based, human; details: compounds at 10 µM and 40 µM, 24 h, compared to control
Description: Consequently, the autolysosomes manifest red fluorescence. Consequently, the red fluorescence observed in the cells can be used as a marker for the formation of autolysosomes. The extent of red fluorescence can be used as an indicator of the efficiency of the flux from the autophagosome to the autolysosome. The bioactivity of all compounds on autophagic flux was evaluated using HM mCherry-GFP-LC3 cells by flow cytometry. In summary, the HM mCherryGFP-LC3 cells were cultured in 12-well plates for 24 h in DMEM (Dulbecco’s modified Eagle medium) supplemented with 10% fetal bovine serum (Gibco-BRL, 10099–141, Gaithersburg, MD, USA) in a 37 ◦C incubator with 5% CO2 at 95% humidity. Subsequently, the compounds were introduced directly to the culture medium, resulting in final concentrations of 10 µM and 40 µM. Rapamycin was used as a positive control. Twenty-four hours following the administration of the treatment, the cells were harvested and fixed using 4% paraformaldehyde (PFA). […] The data were analyzed using the FlowJo software v10 (BD Biosciences, Franklin Lakes, NJ, USA).
Data analyses were carried out by using GraphPad Prism 8 (GraphPad Software, Inc., La Jolla, CA, USA). The one-way ANOVA (analysis of variance) was performed using Dunnett’s post hoc test for comparison between the treated group and control group, and the values were expressed as mean ± standard deviation (SD). […]

## CC(C)NCC(O)COc1cccc2ccccc12 (centres unmarked) [Propranolol, propranolol, reference compound]
[1]
  Prediction of penetration to the CNS: CNS ++ (++ is logPe > −5.0)

## NC(=O)N1c2ccccc2C=Cc2ccccc21 [Carbamazepine, carbamazepine, reference compound]
[1]
  Prediction of penetration to the CNS: CNS ++ (++ is logPe > −5.0)

## C=C1C(OC(=O)C(C)C)C(O)C(OC(=O)c2ccccc2)C(C)(C)C=CC(C)C(OC(C)=O)C2(O)CC(C)(OC(C)=O)C(OC(=O)c3ccccc3)C2C1OC(C)=O (centres unmarked) [Compound 1, Euphjatrophane H]
[1]
  BBB permeability (in words): relatively high BBB permeability; also recorded: ability to penetrate the blood–brain barrier (BBB)
  Prediction of penetration to the CNS: CNS ++ (++ is logPe > −5.0)
HM mCherry-GFP-LC3 cells
  bioactivity towards autophagic flux: most promising activity; also recorded: significant activity on autophagic flux

## C=C1[C@H](OC(=O)/C(C)=C/C)[C@@H](OC(C)=O)[C@@H](OC(C)=O)C(C)(C)/C=C/[C@H](C)[C@@H](OC(C)=O)[C@@]2(O)C[C@@](C)(OC(C)=O)[C@H](OC(=O)c3ccccc3)[C@@H]2[C@H]1OC(C)=O [Compound 12, euphpepluone F]
[1]
  BBB permeability (in words): relatively high BBB permeability; also recorded: ability to penetrate the blood–brain barrier (BBB)
  Prediction of penetration to the CNS: CNS + (+ is logPe > −6.0)
HM mCherry-GFP-LC3 cells
  bioactivity towards autophagic flux: most promising activity; also recorded: significant activity on autophagic flux
